Values after ≈ are worked out from the molar mass of the structure shown. “Also recorded” adds a separate entry of the source.
What was measured:
[1] = system: guinea pig active sensitization allergic conjunctivitis; assay: Suppressive effect against promotion of conjunctival vascular permeability (early phase reaction), dye-leakage; format: in vivo; conditions: 30 minutes after second challenge
Procedure: (§1) Male Hartley guinea pigs weighing about 300 g purchased from Japan SLC. Ltd. were used. These animals had free access to a solid feed (γ ray irradiated feed LRC4, ORIENTAL YEAST CO., LTD.) and tap water, and were bred in a breeding chamber set to a temperature 23 ±2°C and humidity 55±15%.
(§2) Israpafant (manufactured by Yoshitomi Pharmaceutical Industries, Ltd.) was suspended in a vehicle (pH 5) shown below at a concentration of 1% to give an eye drop suspension. In addition, a suspension of israpafant in 0.5% CMC at 10 mg/ml was prepared for oral administration. As a control, physiological saline was used.
Guinea pigs were sensitized with a dispersion of 10 µg ovalbumin (OA) and 30 mg aluminum hydroxide gel by peritoneal administration. At 14 days after the sensitization, a 2.5% OA antigen solution was instilled into the both eyes by 10 µl to induce allergic conjunctivitis (first challenge). At 20 minutes after the last challenge, conjunctivitis signs were observed and the animals were grouped in such a manner that the severity of the condition was equalized from the degrees of chemosis, conjunctival injection and tearing.
The evaluation of a drug included the following steps. At 24 hours from the first challenge, 10 mg/kg Evans' blue was intravenously administered, and a 2.5% OA antigen solution was instilled into the both eyes by 10 µl to again induce conjunctivitis (the second challenge). Thirty minutes later, conjunctival dye-leakage part was excised, the parts of the both eyes were combined and the amount of the leaked dye was measured. The drug was instilled into the both eyes by 10 µl at 3, 2, 1 hour before the second challenge in the case of administration by instillation. In the case of an oral administration, 10 mg/kg was administered once at 1 hour before the second challenge. For suppression of histamine reaction, 1 mg/kg of mepyramine was intravenously administered one minute before.
(§3) • physiological saline (control group) • 1.0% israpafant (instillation group) • 10 mg/kg israpafant p.o. (oral group) • 1 mg/kg mepyramine i.v. (intravenous injection group) • 1.0% israpafant + 1 mg/kg mepyramine i.v. (concurrent instillation group) • 10 mg/kg israpafant p.o.+1 mg/kg mepyramine i.v. (concurrent instillation group)

[2] = system: guinea pig active sensitization allergic conjunctivitis; assay: Suppressive effect against eosinophil infiltration into conjunctiva (late phase reaction); format: in vivo
Procedure: as §1, §2
In the same manner as in 1), sensitization and induction by first challenge and second challenge were performed.
The drug was evaluated by removing the eye ball at 6 hours after the second challenge, preparing an optical microscopic specimen according to a conventional method, staining eosinophils by Luna staining, and counting and averaging the number of eosinophils infiltrated into conjunctiva with regard to each of 6 visible areas (one visible area being 0.04 mm^2) of the vicinity of conjunctival lymphoid tissue. The drug was administered in the same manner as in 1).
as §3

[3] = Dissolution test: solubility of israpafant in buffers, by HPLC; format: physicochemical; conditions: 0.1% acetate, phosphate and borate buffers, 25 °C, aqueous buffer, thermodynamic from solid; each buffer (pH 4, 5, 6, 7, 8 and 9); below detection limit by HPLC
Procedure: Israpafant (manufactured by Yoshitomi Pharmaceutical Industries, Ltd.) was suspended in 0.1% acetate buffer (pH 4, 5, 6), phosphate buffer (pH 6, 7, 8) and borate buffer (pH 8, 9) in a concentration of 0.1% (w/v%, hereinafter the same). Each suspension was filled in a glass ampoule by 5 ml and shaken at 25°C overnight (ca. 15 hours). After passing through a 0.45 µm membrane filter, the solubility of israpafant was measured by HPLC.
(§4) • column: YMC AM-302 (4.6×150 mm) • mobile phase: acetonitrile:0.1M ammonium acetate-87:13 • detection: UV 244 nm • column temperature:35°C • flow rate: 0.7 ml/min • internal standard:1,3,5-triphenylbenzene

[4] = Dissolution test: solubility of israpafant in aqueous solutions containing additives, by HPLC; format: physicochemical; conditions: for solubility: 0.1% phosphate buffer with dissolved additive, 25 °C, pH 7, aqueous with cosolvent or surfactant or cyclodextrin, thermodynamic from solid
Procedure: In 0.1% phosphate buffer (pH 7) were dissolved the additives shown in Table 2 in a proportion of 0.5% (0.5% and 4% in the sole case of polysorbate). In the same manner as above, israpafant was suspended and dissolved, after which the solubility of israpafant was measured by HPLC.
as §4

[5] = Solubility in water; format: physicochemical; conditions: water at 25°C
[6] = system: guinea pig active sensitization allergic conjunctivitis; assay: Suppressive effect against immediate allergic conjunctivitis signs (early phase reaction), total score; format: in vivo; conditions: 1% israpafant instillation 10 µl one eye at 2, 4, 8 hours after first challenge and 3, 2, 1 hour before second challenge; 20 minutes after second challenge; versus physiological saline control
Procedure: as §1, §2
In the same manner as in 1), sensitization and induction by the first challenge and the second challenge were performed. […]

[7] = system: rat PAF conjunctivitis; assay: Rat PAF conjunctivitis, conjunctival dye-leakage after eye drop; format: in vivo; conditions: for inhibition: dye leakage; for amount of dye leakage: instillation 5 µl at 1, 2 hours before PAF, mean±standard error
Procedure: Male Wistar rats weighing about 130 g purchased from Clea Japan, Inc. were used. They were bred at temperature 23±2°C and humidity 55±15%.
Israpafant was suspended at 0.03, 0.1, 0.3 and 1.0%. Physiological saline was used for the control group.
The formulation of the vehicle for an israpafant eye drop was as shown below, wherein the pH of the eye drop at each concentration was 7.0.
PAF diluted to 4 µg/ml was administered to the upper subconjunctiva of the rat by 25 µl and at the same time, 0.5% Evans' blue (0.5 ml) was intravenously administered. Thirty minutes later, the dye-leakage part of the conjunctiva was excised and the dye was extracted with formamide, after which absorbance (625 nm) was measured. The test drug was administered by instillation (5 µl) to the eye at 1, 2 hours before subconjunctival induction of PAF.

COc1ccc(CN(CCN(C)C)c2ccccn2)cc1 [mepyramine, reference compound]
dye-leakage ([1]; 1 mg/kg mepyramine i.v. one minute before, control 34.5 µg): 17.5 µg/two eye balls | suppressive effect on eosinophil infiltration (in words) ([2]; 1 mg/kg mepyramine i.v., 6 hours after second challenge): suppressive effect

Cc1nnc2n1-c1sc(CCc3ccc(CC(C)C)cc3)cc1C(c1ccccc1Cl)=NC2C (stereo not drawn) [israpafant, 4-(2-Chlorophenyl)-2-[2-(4-isobutylphenyl)ethyl]-6,9-dimethyl-6H-thieno[3,2-f][1,2,4]triazolo[4,3-a][1,4]diazepine]
solubility [3]: < 0.05 µg/mL | solubility ([4]; 0.5% BAK in 0.1% phosphate buffer (pH 7)): 99 µg/mL (≈ 202 µM) | solubility ([4]; 0.5% HCO60 in 0.1% phosphate buffer (pH 7)): 47.3 µg/mL (≈ 96.7 µM) | solubility ([4]; 0.5% HPMC in 0.1% phosphate buffer (pH 7)): 0.6 µg/mL (≈ 1.23 µM) | solubility ([4]; 0.5% PVA(EG40) in 0.1% phosphate buffer (pH 7)): 0.4 µg/mL (≈ 0.818 µM) | solubility ([4]; 0.5% SDS in 0.1% phosphate buffer (pH 7)): 1060 µg/mL (≈ 2160 µM) | solubility ([4]; 0.5% Tyloxapol in 0.1% phosphate buffer (pH 7)): 29.5 µg/mL (≈ 60.3 µM) | solubility ([4]; 0.5% polysorbate 80 in 0.1% phosphate buffer (pH 7)): 66.9 µg/mL (≈ 137 µM) | solubility ([4]; polysorbate 80 (4% aq. solution) in 0.1% phosphate buffer (pH 7)): 581 µg/mL (≈ 1190 µM) | dissolution (in words) ([4]; 0.5% aqueous sodium dodecylsulfate solution): dissolved extremely well | dissolution (in words) ([4]; 4% aqueous polysorbate solution): dissolved extremely well | dissolution (in words) ([4]; aqueous solution containing a water soluble polymer or cyclodextrin): did not dissolve | dissolution (in words) ([4]; aqueous surfactant solution): dissolved well | solubility in water [5]: less than 0.01 w/v% | dye-leakage ([1]; 10 mg/kg israpafant p.o. + 1 mg/kg mepyramine i.v. (oral concurrent group)): 10.1 µg/two eye balls | dye-leakage ([1]; 10 mg/kg israpafant p.o. once 1 hour before second challenge, control 34.5 µg): 25.3 µg/two eye balls | dye-leakage ([1]; 1.0% israpafant eye drop suspension, instillation 10 µl both eyes at 3, 2, 1 hour before second challenge, control 34.5 µg): 24.7 µg/two eye balls | dye-leakage ([1]; 1.0% israpafant instillation + 1 mg/kg mepyramine i.v. (concurrent instillation group)): 11.0 µg/two eye balls | total score of conjunctivitis signs [6]: significant decrease | suppressive effect on eosinophil infiltration (in words) ([2]; 10 mg/kg israpafant p.o. (oral group), 6 hours after second challenge): no suppressive effect; also recorded: no effect was found; also recorded: no effect was observed | suppressive effect on eosinophil infiltration (in words) ([2]; 10 mg/kg israpafant p.o. + 1 mg/kg mepyramine i.v. (concurrent oral administration group), almost the same as mepyramine alone): suppressive effect | suppressive effect on eosinophil infiltration (in words) ([2]; 1.0% israpafant instillation + 1 mg/kg mepyramine i.v. (concurrent instillation group), almost the same as mepyramine alone): suppressive effect | eosinophil infiltration count ([2]; 1.0% israpafant instillation, 6 hours after second challenge, control 95.3): 71.8 cell/0.04 mm^2 | inhibition ([7]; eye drop suspension 0.03% (dose 3 µg)): 19.1% | inhibition ([7]; eye drop suspension 0.1% (dose 10 µg)): 29.6% | inhibition ([7]; eye drop suspension 0.3% (dose 30 µg)): 41.6% | inhibition ([7]; eye drop suspension 1.0% (dose 100 µg)): 53.2% | amount of dye leakage ([7]; eye drop suspension 0.03% (dose 3 µg), saline 40.03±2.57): 32.29±3.31 µg/site | amount of dye leakage ([7]; eye drop suspension 0.1% (dose 10 µg), p<0.01): 28.17±1.42 µg/site | amount of dye leakage ([7]; eye drop suspension 0.3% (dose 30 µg), p<0.01): 23.37±2.56 µg/site | amount of dye leakage ([7]; eye drop suspension 1.0% (dose 100 µg), p<0.01): 18.74±2.20 µg/site

— EP1004309A1, “ISRAPAFANT-CONTAINING WATER-BASE PREPARATIONS” (Senju Pharmaceutical Co., Ltd., priority 1997, dated 1998)
